Laboratory results taken from patent publication US4443466A, “4-Benzyl- and 4-benzoyl-substituted imidazole derivatives and use as medicaments” (priority 1980, dated 1984).
Like-named read-outs stand apart in the source and are kept apart here.

What was measured:
[1] = system: rats (blood pressure); assay: Applicant's experiments on prior-art imidazoles: anti-hypertensive activity / blood pressure in rats; format: in vivo, rat; settings: for antihypertensive activity: found by our experiments
[2] = system: spontaneous hypertensive rats (SHR) (blood pressure); assay: Blood pressure in unanesthetized Okamoto-Aoki spontaneous hypertensive rats (SHR), peroral; format: in vivo, rat (Okamoto-Aoki SHR)
Protocol: In a further test for anti-hypertensive properties, unanesthetized Okamoto-Aoki spontaneous hypertensive rats (SHR) were used. The test derivative was administered perorally by way of a tube into the stomach. The blood pressure was measured from the tail using an indirect bloodless method.

[3] = Acute toxicity in female NMRI mice, i.v.; settings: in vivo, iv, mouse
Protocol: Acute toxicity was determined by using female mice of NMRI-Strain with an age of about 7 months and weighing 30-40 g. The administration of the test compound was i.v.

[4] = system: anesthetized Sprague-Dawley rats (blood pressure, pulse frequency); assay: Blood pressure and pulse frequency in anesthetized normal-weight Sprague-Dawley rats (i.v.); format: in vivo, rat (Sprague-Dawley); settings: for minimal effective dose: Rattus norvegicus, iv
Protocol: The anti-hypertensive properties of the imidazole derivatives of the present invention have been determined according to the following procedure. Sprague-Dawley rats of normal weight were first anesthetized with urethane. After this, the femoral artery was connected by way of a polyethylene tube with a blood pressure transducer. The test substance was then injected into the femoral vein and the blood pressure and the pulse frequency were registered with a recorder. The minimum doses producing a significant change were found, i.e. ± at least 20% in the case of blood pressure, and ± at least 3% in the case of pulse frequency.

[5] = system: indomethacin-induced ulcers; assay: Preventive effect on formation of indomethacin-induced ulcers; format: in vivo, rat (female Sprague-Dawley); settings: for ED50: Rattus norvegicus, ip, 4 h, read-out: ED50 (ulcer prevention)
[6] = system: cattle (avoidance, muscle tone); assay: Tranquilizing or taming effect on cattle; format: in vivo
Protocol: (§1) The tranquilizing activity of the compounds was determined by the following methods:
(2) Tranquilizing or taming effect on cattle:
The test compounds were administered i.m. to cattle, mostly to heifers (150-200 kg).
The most suitable tranquilized state of an animal includes the ability to retain the upright position and coordination with minimal avoidance reactions to painful stimuli and handling. Thus, a combination of sedative and analgesic potency is required.

[7] = system: male mice on a 55° C. hot plate; assay: Hot plate test; format: in vivo, mouse (male)
Protocol: The analgesic activity of the compounds of formula (I) was tested in the following manner: […]
Test compounds or saline were given i.p. to male mice. Thirty minutes thereafter, the time for which the mice remained on a 55° C. plate was recorded. The results are expressed as compared to saline.

[8] = system: rats (motility, muscle tone, catalepsia); assay: Tranquilizing activity: Irwin screen in rats; format: in vivo, rat
Protocol: as §1
(1) Irwin screen in rats (Irwin S., Psychopharmacologia 13:222, 1968)
Especially sedatory and cataleptic activity and effects on muscle tone are observed.

[9] = Preventive effect on formation of indomethacin-induced ulcers; format: in vivo, rat (female Sprague-Dawley); settings: rat, in vivo, iv; LD50 (mouse, i.v.) / ED50 (ulcer); read-out: Therapeutic Index
[10] = read-out: Blood Pressure Minimum Dose having a significant lowering effect
[11] = read-out: Pulse frequency Minimum Dose having a significant lowering effect
[12] = 10 μg/kg i.v., anesthetized rats, on an average

Row | SMILES | antihypertensive activity [1] | LD50 [3] [mg/kg] | minimal effective dose [4, 10] [mg/kg] | minimal effective dose [4, 11] [mg/kg] | loss of avoidance ([6]; 0.1 mg/kg i.m.) | decrease of motility ([8]; 1.0 mg/kg) | loss of muscle tone ([8]; 1.0 mg/kg) | ED50 [5] [mg/kg] | selectivity ratio [9] | also measured
1 | Cc1[nH]cnc1Cc1ccccc1 [4-benzyl-5-methylimidazole] | no antihypertensive activity | – | – | – | – | – | – | – | – | blood pressure change in rats ([1]; rats, 1 mg/kg i.v.): the blood pressure rises; blood pressure lowering effect in rats ([1]; rats, at any dosage): no blood pressure lowering effect
2 | Cc1cccc(C)c1C(O)c1c[nH]cn1 (stereo not drawn) [4-[α-(2',6'-Dimethylphenyl)]hydroxymethylimidazole] | – | 125 | 0.1 to 3 | 0.1 | – | – | – | – | – | decrease of blood pressure ([2]; awake SHR rats, 3 mg/kg p.o., 3 hours after administration): 20%; lowering of blood pressure ([4]; 300 μg/kg i.v.): noticeable; prevention of the formation of ulcers ([5]; 0.5 mg/kg): the prevention was partial; prevention of the formation of ulcers ([5]; 5 mg/kg): completely prevented the formation of ulcers
3 | Cc1cccc(Cc2c[nH]cn2)c1C [4-(2',3'-dimethylbenzyl)imidazole, 4-(2',3'-Dimethylbenzyl)imidazole] | – | 35 | 0.01 to 0.1 | 0.01 to 1 | ++ | + | + | 0.005 | 7000 | Analgesic activity ([7]; 0.6 mg/kg): +; change in vivo at 0.6 mg/kg ([7]; Mus musculus, ip, 0.5 h, 0.6 mg/kg i.p., read-out: increase in HP-time (%)): 200%; minimal effective dose ([4]; read-out: Pulse frequency Minimum Dose having a significant increasing effect): 3 to 10 mg/kg
4 | Cc1cccc(C)c1Cc1cnc[nH]1 [4-(2',6'-dimethylbenzyl)imidazole, 4-(2',6'-Dimethylbenzyl)imidazole] | – | 40 | 0.003 to 0.1 | 0.003 | – | ++ | + | 0.005 | 8000 | decrease of blood pressure ([2]; awake SHR, 100 μg/kg p.o., four hours after administration): about 20%; decrease of blood pressure ([2]; awake SHR, 300 μg/kg p.o., four hours after administration): 25%; loss of avoidance ([6]; 0.05 mg/kg i.m.): ++; loss of muscle tone ([6]; 0.05 mg/kg i.m.): +; lowering of the blood pressure ([4]; 1 μg/kg i.v., anesthetized rats): detectable lowering of the blood pressure; blood pressure lowering ([4]; 3 μg/kg i.v., anesthetized rats): quite clear; decrease of pulse frequency [4, 12]: 12%; reduction of blood pressure [4, 12]: 30%; therapeutic range ([4]; LD50 40 mg/kg i.v. in mice versus blood pressure lowering doses): very broad; duration of the effect ([4]; i.v., anesthetized rats, determination then interrupted): at least 50 minutes; prevention of the formation of ulcers ([5]; 5 μg/kg i.p.): completely prevented the formation of ulcers
5 | Clc1ccccc1Cc1c[nH]cn1 [4-(2'-chlorobenzyl)imidazole, 4-(2'-Chlorobenzyl)imidazole] | – | 65 | – | – | + | – | – | 0.03 | 2170 | Analgesic activity ([7]; 1.5 mg/kg): +; change in vivo at 1.5 mg/kg ([7]; Mus musculus, ip, 0.5 h, 1.5 mg/kg i.p., read-out: increase in HP-time (%)): 200%; catalepsia ([8]; 0.25 mg/kg): +; decrease of motility ([8]; 0.25 mg/kg): +
6 | CCc1[nH]cnc1Cc1ccccc1 [5(4)-ethyl-4(5)-benzylimidazole] | no antihypertensive activity | – | – | – | – | – | – | – | – | –
